Laboratory results as given in patent US20250195513A1, “DEGRADATION OF IRAK4 BY CONJUGATION OF IRAK4 INHIBITORS WITH E3 LIGASE LIGAND AND METHODS OF USE” (BeiGene, Ltd., priority 2022, published 2025).

What was measured:
IRAK4 [1] = biological target: T1, IRAK4 (Homo sapiens, UniProt Q9NWZ3); test: IRAK4 Degradation Assay (Karpas299, HTRF/TR-FRET); type: cell-based; details: Karpas-299 cells; for Dmax: maximum percentage of degradation
T1 construct: endogenous in cells; host or cells: Karpas299
T1 sequence (Q9NWZ3 1-460): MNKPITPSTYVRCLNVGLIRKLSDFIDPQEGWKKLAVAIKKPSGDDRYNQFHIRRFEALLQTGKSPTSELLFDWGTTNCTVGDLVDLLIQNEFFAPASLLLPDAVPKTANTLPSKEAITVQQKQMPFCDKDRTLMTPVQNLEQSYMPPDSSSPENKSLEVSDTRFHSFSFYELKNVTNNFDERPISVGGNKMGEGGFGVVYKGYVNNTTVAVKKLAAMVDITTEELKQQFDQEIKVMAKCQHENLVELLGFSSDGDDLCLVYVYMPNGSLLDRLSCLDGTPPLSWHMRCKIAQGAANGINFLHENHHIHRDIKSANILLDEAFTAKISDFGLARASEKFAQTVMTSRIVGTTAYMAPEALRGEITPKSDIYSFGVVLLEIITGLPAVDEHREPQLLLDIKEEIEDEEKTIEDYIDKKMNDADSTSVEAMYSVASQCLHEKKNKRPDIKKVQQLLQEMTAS
How it was run: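 Compound potency as DC50 (IC50) came from four-parameter fits of percent IRAK4 degradation. IRAK4 was measured by HTRF (665/620 nm) in lysates of Karpas299 cells seeded at 0.2 million per well. Cells had been treated with compound dilutions for 5 or 24 h.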

IRAK4 [2] = biological target: T1, IRAK4; test: IRAK4 Degradation Assay with Human Serum (Karpas299, HTRF/TR-FRET); type: cell-based; details: Karpas-299 in human serum, 24 hrs treatment; for DC50: read-out: IRAK4 degradtion with human serum assay DC50; for Dmax: read-out: IRAK4 degradtion with human serum assay Dmax (%)
How it was run: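 Remaining IRAK4 measured by TR-FRET immunoassay on lysates of Karpas299 cells exposed 24 h to compound dilution series in human serum AB. DC50 derived from a Hill-slope fit of % degradation versus concentration.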

[3] = 24 h treatment, read-out: IRAK4 in Karpas-299 (24 h) Dmax (%)
[4] = 24 h treatment, read-out: IRAK4 in Karpas-299 (24 h) DC50

| Compound | Dmax (IRAK4 [1]; [3]) | DC50 (IRAK4 [1]; [4]) | DC50 (IRAK4 [2]) | Dmax (IRAK4 [2]) | Dmax (IRAK4 [1]; 5 h treatment, read-out: IRAK4 in Karpas-299 (5 h) Dmax (%)) | DC50 (IRAK4 [1]; 5 h treatment, read-out: IRAK4 in Karpas-299 (5 h) DC50) |
| --- | --- | --- | --- | --- | --- | --- |
| CC(C)(O)c1cc2nn([C@H]3CC[C@H](N4CCN(C5CCN(c6ccc7c(c6)C(=O)N(C6CCC(=O)NC6=O)C7=O)CC5)CC4)CC3)cc2cc1NC(=O)c1ccc2cc(C#N)cnn12 (some centres unmarked) [Example 430, 3-cyano-N-(2-((1r,4r)-4-(4-(1-(2-(2,6-dioxopiperidin-3-yl)-1,3-dioxoisoindolin-5-yl)piperidin-4-yl)piperazin-1-yl)cyclohexyl)-6-(2-hydroxypropan-2-yl)-2H-indazol-5-yl)pyrrolo[1,2-b]pyridazine 7-carboxamide] | 97% | 1.4 nM | 15 nM | 98% |  |  |
| CC(C)(O)c1cc2nn([C@H]3CC[C@H](N4CCN(CCc5cc(F)c([C@H]6CCC(=O)NC6=O)c(F)c5)CC4)CC3)cc2cc1NC(=O)c1ccc2cc(Br)cnn12 [Example 414, 3-bromo-N-(2-((1R,4r)-4-(4-(4-((R)-2,6-dioxopiperidin-3-yl)-3,5-difluorophenethyl)piperazin-1-yl)cyclohexyl)-6-(2-hydroxypropan-2-yl)-2H-indazol-5-yl)pyrrolo[1,2-b]pyridazine-7-carboxamide] | 96% | 1.5 nM | 439 nM | 97% |  |  |
| CC(C)(O)c1cc2nn(C34CC(N5CCN(C(=O)[C@@H]6CCN(c7cc(F)c([C@H]8CCC(=O)NC8=O)c(F)c7)C6)CC5)(C3)C4)cc2cc1NC(=O)c1cccc(C(F)(F)F)n1 [Example 152, N-(2-(3-(4-((R)-1-(4-((R)-2,6-dioxopiperidin-3-yl)-3,5-difluorophenyl)pyrrolidine-3-carbonyl)piperazin-1-yl)bicyclo[1.1.1]pentan-1-yl)-6-(2-hydroxypropan-2-yl)-2H-indazol-5-yl)-6-(trifluoromethyl)picolinamide] | 96% | 2.1 nM | 55 nM | 98% | 96% | 3.8 nM |
| CC(C)(O)c1cc2nn([C@H]3CC[C@H](N4CCN([C@H]5CCN(c6cc(F)c(C7CCC(=O)NC7=O)c(F)c6)C5)CC4)CC3)cc2cc1NC(=O)c1ccc2cc(C#N)cnn12 (stereo partly drawn) [Example 395, 3-cyano-N-(2-((1S,4r)-4-(4-((3S)-1-(4-(2,6-dioxopiperidin-3-yl)-3,5-difluorophenyl)pyrrolidin-3-yl)piperazin-1-yl)cyclohexyl)-6-(2-hydroxypropan-2-yl)-2H-indazol-5-yl)pyrrolo[1,2-b]pyridazine-7-carboxamide] | 97% | 0.8 nM | 21 nM | 99% |  |  |
| COc1cc2nn([C@H]3CC[C@H](N4CCN(C(=O)C5CN(c6cc(F)c([C@H]7CCC(=O)NC7=O)c(F)c6)C5)CC4)CC3)cc2cc1C(=O)Nc1cnn2cccnc12 [Example 344, 2-((1r,4r)-4-(4-(1-(4-((R)-2,6-dioxopiperidin-3-yl)-3,5-difluorophenyl)azetidine-3-carbonyl)piperazin-1-yl)cyclohexyl)-6-methoxy-N-(pyrazolo[1,5-a]pyrimidin-3-yl)-2H-indazole-5-carboxamide] | 98% | 0.24 nM | 2.7 nM | 100% |  |  |
| COc1cc(N2CC(C(=O)N3CCN([C@H]4CC[C@H](n5cc6cc(NC(=O)c7ccc8cc(C#N)cnn78)c(C(C)(C)O)cc6n5)CC4)CC3)C2)c(F)cc1N1CCC(=O)NC1=O [Example 258, 3-cyano-N-(2-((1r,4r)-4-(4-(1-(4-(2,4-dioxotetrahydropyrimidin-1(2H)-yl)-2-fluoro-5-methoxyphenyl)azetidine-3-carbonyl)piperazin-1-yl)cyclohexyl)-6-(2-hydroxypropan-2-yl)-2H-indazol-5-yl)pyrrolo[1,2-b]pyridazine-7-carboxamide] | 96% | 2.6 nM | 21 nM | 97% |  |  |

More lines, in order of falling DC50 (IRAK4 [1]; [4]), values ahead:

| Dmax (IRAK4 [1]; [3]) | DC50 (IRAK4 [1]; [4]) | DC50 (IRAK4 [2]) | Dmax (IRAK4 [2]) | Dmax (IRAK4 [1]; 5 h treatment, read-out: IRAK4 in Karpas-299 (5 h) Dmax (%)) | DC50 (IRAK4 [1]; 5 h treatment, read-out: IRAK4 in Karpas-299 (5 h) DC50) | Compound |
| --- | --- | --- | --- | --- | --- | --- |
| 97% | 3.9 nM | 28 nM | 94% |  |  | CC(C)(O)c1cc2nn([C@H]3CC[C@H](N4CCN(CC5CN(c6cc(F)c(N7CCC(=O)NC7=O)c(F)c6)C5)CC4)CC3)cc2cc1NC(=O)c1ccc2cc(C#N)cnn12 [Example 108, 3-cyano-N-(2-((1r,4r)-4-(4-((1-(4-(2,4-dioxotetrahydropyrimidin-1(2H)-yl)-3,5-difluorophenyl)azetidin-3-yl)methyl)piperazin-1-yl)cyclohexyl)-6-(2-hydroxypropan-2-yl)-2H-indazol-5-yl)pyrrolo[1,2-b]pyridazine-7-carboxamide] |
| 97% | 3.5 nM | 10 nM | 96% |  |  | CC(C)(O)c1cc2nn([C@H]3CC[C@H](C4CCN(C5CCN(c6cc(F)c([C@H]7CCC(=O)NC7=O)c(F)c6)CC5)CC4)CC3)cc2cc1NC(=O)c1ccc2cc(C#N)cnn12 [Example 409, 3-cyano-N-(2-((1r,4r)-4-(1′-(4-((R)-2,6-dioxopiperidin-3-yl)-3,5-difluorophenyl)-[1,4′-bipiperidin]-4-yl)cyclohexyl)-6-(2-hydroxypropan-2-yl)-2H-indazol-5-yl)pyrrolo[1,2-b]pyridazine-7-carboxamide] |
| 97% | 1.5 nM | 8.9 nM | 99% |  |  | C[C@H]1CN(C2CN(c3cc(F)c([C@H]4CCC(=O)NC4=O)c(F)c3)C2)CCN1[C@H]1CC[C@H](n2cc3cc(NC(=O)c4ccc5cc(C#N)cnn45)c(C(C)(C)O)cc3n2)CC1 [Example 308, 3-cyano-N-(2-((1S,4r)-4-((S)-4-(1-(4-((R)-2,6-dioxopiperidin-3-yl)-3,5-difluorophenyl)azetidin-3-yl)-2-methylpiperazin-1-yl)cyclohexyl)-6-(2-hydroxypropan-2-yl)-2H-indazol-5-yl)pyrrolo[1,2-b]pyridazine-7-carboxamide] |
| 97% | 1.5 nM | 15 nM | 96% |  |  | CC(C)(O)c1cc2nn(C3CCN([C@@H]4CCN(C5CCN(c6cc(F)c([C@H]7CCC(=O)NC7=O)c(F)c6)CC5)CC4(F)F)CC3)cc2cc1NC(=O)c1ccc2cc(C#N)cnn12 [Example 341, 3-cyano-N-(2-((R)-1″-(4-((R)-2,6-dioxopiperidin-3-yl)-3,5-difluorophenyl)-3′,3′-difluoro-[1,4′:1′,4″-terpiperidin]-4-yl)-6-(2-hydroxypropan-2-yl)-2H-indazol-5-yl)pyrrolo[1,2-b]pyridazine-7-carboxamide] |
| 98% | 0.4 nM | 21 nM | 99% |  |  | CC(C)(O)c1cc2nn(C34CC(N5CCN(C(=O)C6CN(c7cc(F)c([C@H]8CCC(=O)NC8=O)c(F)c7)C6)CC5)(C3)C4)cc2cc1NC(=O)c1ccc2cc(C#N)cnn12 [Example 157, (R)-3-cyano-N-(2-(3-(4-(1-(4-(2,6-dioxopiperidin-3-yl)-3,5-difluorophenyl)azetidine-3-carbonyl)piperazin-1-yl)bicyclo[1.1.1]pentan-1-yl)-6-(2-hydroxypropan-2-yl)-2H-indazol-5-yl)pyrrolo[1,2-b]pyridazine-7-carboxamide] |
| 97% | 0.1 nM | 2.3 nM | 102% |  |  | COc1cc2nn([C@H]3CC[C@H](N4CCN(C(=O)C5CN(c6cc(F)c([C@H]7CCC(=O)NC7=O)c(F)c6)C5)CC4)CC3)cc2cc1C(=O)Nc1cnc2cccnn12 [Example 343, 2-((1r,4r)-4-(4-(1-(4-((R)-2,6-dioxopiperidin-3-yl)-3,5-difluorophenyl)azetidine-3-carbonyl)piperazin-1-yl)cyclohexyl)-N-(imidazo[1,2-b]pyridazin-3-yl)-6-methoxy-2H-indazole-5-carboxamide] |
